Laboratory results as given in patent EP2077260B1, “AMIDE COMPOUND OR SALT THEREOF, AND BIOFILM FORMATION INHIBITOR, BIOFILM REMOVER AND BACTERICIDE EACH USING THE AMIDE COMPOUND OR SALT THEREOF” (The University of Tokyo, priority 2006, dated 2008).
≈ marks a conversion by molar mass, not a printed value. Read-outs that look alike come from different tables or passages of the source.

Tests used:
[1] = tested on: Escherichia coli ATCC 25922; assay: Evaluation test for disinfecting effect, broth dilution method CLSI(M7-A7)2006; format: cell-based; conditions: 37°C, 18 hours
Excerpt: (§1) The following test compounds were examined for the disinfecting activities against Pseudomonas aeruginosa, E.. Coli and staphylococcus aureus, according to a broth dilution method of "CLSI(M7-A7)2006" (Clinical and Laboratory Standards Institute, M7-A7, Methods for Dilution Antimicrobial Susceptibility Tests for Bacteria That Grow Aerobically; Approved Standard-Seventh Edition, 2006),
(§2) • Pseudomonas aeruginosa PAO1 • Pseudomonas aeruginosa ATCC 27853 • Escherichia coli ATCC 25922 • Staphylococcus aureus ATCC 29213 • Staphylococcus aureus Methicillin resistant (MRSA) ATCC 43300
(§3) Each of above-mentioned bacteria was inoculated in a TSB culture medium (Bacto TSB Broth, product of BD) for overnight cultivation at 37°C. The culture solution was applied to a TSB agar plate for about a 20-hour cultivation to form colonies. Three to five colonies were taken from the agar plate, and an average colony of them was inoculated in a 4mL TSB culture medium.. The colony was cultivated at 35°C until the number of microorganisms became 1 × 10^8 to 2 x 10^8 CFU/mL. The number of microorganisms with time was found by measuring changes in absorbency at 590nm of culture solution with time. When the turbidity became equivalent to 0.5 McFarland standard, it was determined that the number of microorganisms reached the target level = 1 × 10^8 to 2 × 10^8 CFU/mL.
(§4) The bacillus culture solution thus obtained was diluted 10-fold within 15 minutes, and a 5µL portion was inoculated in each well of an evaluation 96-well microplate. This 96-well microplate was a sterilized 96-well microplate with U-shaped bottoms (Falcon 35-3918: product of BD), and each well was filled with a 100µL portion of MH culture medium (BBL MH Broth: product of BD). Within 15 minutes after inoculation of the bacillus culture solutions, the test compounds were supplied to the well in a manner of 2-fold graded dilution. The cultivation was then carried out at 37°C for 18 hours.
(§5) The MIC was determined as follows. "S (susceptible)" indicates a concentration which caused 80% or more reduction in the diameter of the aggregation deposited in the bottom of the well, compared to when the test liquid is not used. "R (Resistant)" indicates a concentration that caused less than 80% reduction in diameter. The reduction was measured visually.. "I(Intermediate)" indicates a concentration that cannot be measured visually

[2] = tested on: Pseudomonas aeruginosa ATCC 27853; assay: as above; format: cell-based; conditions: 37°C, 18 hours
Excerpt: as §1, §2, §3, §4, §5

[3] = tested on: Pseudomonas aeruginosa PAO1; assay: as above; format: cell-based; conditions: 37°C, 18 hours
Excerpt: as §1, §2, §3, §4, §5

[4] = tested on: Staphylococcus aureus ATCC 29213; assay: as above; format: cell-based; conditions: 37°C, 18 hours
Excerpt: as §1, §2, §3, §4, §5

[5] = tested on: Staphylococcus aureus Methicillin resistant (MRSA) ATCC 43300; assay: as above; format: cell-based; conditions: 37°C, 18 hours
Excerpt: as §1, §2, §3, §4, §5

[6] = tested on: Staphylococcus aureus ATCC 29213; conditions: Publicly-known data, CLSI(M100-S16)2006 liquid dilution method; cited from earlier work
[7] = tested on: Porphyromonas gingivalis 381-strain (clinical strain); assay: Evaluation test for biofilm formation inhibition effect against periodontitis pathogenic bacteria (flow cell system, HA disks, turbidity); format: cell-based; conditions: for Mean OD Value: turbidity at 550 nm of biofilm peeled off HA disks; for inhibition at 100 µM: Porphyromonas gingivalis, 336 h, read-out: Biofilm Formation Inhibition Rate(%)
Procedure: As with Experiment Example 1, using the flow cell system of FIG. 1, an inhibitory effect against biofilm formation by periodontitis pathogenic bacteria was evaluated for each of the amide compounds produced in Production Examples 1, 3, 5, and 6 (Compounds 1a-1, 1b-1, 1c-1, 1c-2).
Periodontitis pathogenic bacteria Porphyromonas gingivalis 381-strain (clinical strain) was used..
A GAM culture medium containing hemin 5µg/L and menadione 1µg/L was used.
The 381-strain was inoculated in the GAM culture medium, and cultivated until stationary phase (OD550=1.8). Then the culture medium was diluted 20-fold by a fresh GAM culture medium containing the above-mentioned substances.
The test liquid was prepared by dissolving 100µM of each of the Compounds 1a-1, 1b-1, 1c-1, or 1c-2 according to Production Examples 1, 3, 5 and 6 and 100µM of Comparative Compounds 1 and 2 as comparative examples in dimethyl sulfoxide (DMSO), and supplying the resulting DMSO solutions to the above-mentioned bacterial suspensions so that the concentration of each compound becomes 0.1%(v/v).
A DMSO not containing the compound was used as a control test liquid.
The glass cell (4) of the flow cell system (see FIG. 1) was replaced with a stainless cell (3 x 7 x 120mm), and 10 hydroxyapatite (HA) disks (6mm in diameter, 1mm in thickness) were placed in the cell. The HA disks had been subjected to salivary treatment overnight. Each of the test liquids and control test liquids was circulated in the system at a flow rate of 8mL/min for 14 days, Note that the test liquids and the control test liquids were replaced with fresh liquids every two days.
After the cultivation, the HA disks were dipped in 300µL of sterile distilled water, and treated by supersonic wave for 30 minutes at 4°C, The biofilms formed in the HA disks were peeled off and suspended in distilled water. Then, 100µL of the suspension liquid was measured for the turbidity with an absorptiometer (C07500 colorimeter, product of Funakoshi) (measurement wavelength = 550 nm).
A mean OD was found based on the resulting OD values, excluding the minimum and maximum values, Also, a mean value of the turbidities for the Control Test Liquids was found in the same manner as the control mean OD value. A biofilm formation inhibition rate (Inhibition Rate) was found by the following formula. Biofilm Formation Inhibition Rate (%) = […] [formula]

[8] = ATCC25922, I (Intermediate): concentration that cannot be measured visually, read-out: MIC (µg/mL) I
[9] = ATCC25922, R (Resistant): concentration that caused less than 80% reduction in diameter of the aggregation, read-out: MIC (µg/mL) R
[10] = ATCC25922, S (susceptible): concentration which caused 80% or more reduction in diameter of the aggregation, read-out: MIC (µg/mL) S
[11] = ATCC27853, I (Intermediate): concentration that cannot be measured visually, read-out: MIC (µg/mL) I
[12] = ATCC27853, R (Resistant): concentration that caused less than 80% reduction in diameter of the aggregation, read-out: MIC (µg/mL) R
[13] = ATCC27853, S (susceptible): concentration which caused 80% or more reduction in diameter of the aggregation, read-out: MIC (µg/mL) S
[14] = PAO1, R (Resistant): concentration that caused less than 80% reduction in diameter of the aggregation, read-out: MIC (µg/mL) R
[15] = PAO1, S (susceptible): concentration which caused 80% or more reduction in diameter of the aggregation, read-out: MIC (µg/mL) S
[16] = ATCC29213, R (Resistant): concentration that caused less than 80% reduction in diameter of the aggregation, read-out: MIC (µg/mL) R
[17] = ATCC29213, S (susceptible): concentration which caused 80% or more reduction in diameter of the aggregation, read-out: MIC (µg/mL) S
[18] = R (Resistant): concentration that caused less than 80% reduction in diameter of the aggregation, read-out: MIC (µg/mL) R

Row | SMILES | MIC [1, 8] | MIC [1, 9] | MIC [1, 10] | MIC [2, 11] | MIC [2, 12] | MIC [2, 13] | MIC [3, 14] | MIC [3, 15] | MIC [4, 16] | MIC [4, 17] | MIC [5, 18] | Mean OD Value ([7]; 100µM, 14 days) | inhibition at 100 µM [7] | also measured
1 | CC[C@H]1OC(=O)[C@H](C)[C@@H](O[C@H]2C[C@@](C)(OC)[C@@H](O)[C@H](C)O2)[C@H](C)[C@@H](O[C@@H]2O[C@H](C)C[C@H](N(C)C)[C@H]2O)[C@](C)(O)C[C@@H](C)CN(C)[C@H](C)[C@@H](O)[C@]1(C)O [AZM, Azithromycin] | 4 µg/mL (≈ 5.34 µM) | ≤ 2 µg/mL | ≥ 8 µg/mL | 64 µg/mL (≈ 85.4 µM) | ≤ 32 µg/mL | ≥ 128 µg/mL | ≤ 32 µg/mL | ≥ 128 µg/mL | ≤ 0.5 µg/mL | ≥ 2 µg/mL | ≤ 1020 µg/mL | – | – | MIC ([3]; PAO1, I (Intermediate): concentration that cannot be measured visually, read-out: MIC (µg/mL) I): 64 µg/mL (≈ 85.4 µM); MIC ([4]; ATCC29213, I (Intermediate): concentration that cannot be measured visually, read-out: MIC (µg/mL) I): 1 µg/mL (≈ 1.34 µM); MIC (µg/mL) from M100-S16 [6]: 0.5 to 2 µg/mL
2 | CC1(C)S[C@@H]2[C@H](NC(=O)C(C(=O)O)c3ccccc3)C(=O)N2[C@H]1C(=O)O (stereo partly drawn) [CBPC, Carbenicillin] | 16 µg/mL (≈ 42.3 µM) | ≤ 8 µg/mL | ≥ 32 µg/mL | 128 µg/mL (≈ 338 µM) | ≤ 64 µg/mL | ≥ 256 µg/mL | ≤ 64 µg/mL | ≥ 128 µg/mL | ≤ 8 µg/mL | ≥ 16 µg/mL | ≤ 16 µg/mL | – | – | MIC ([5]; I (Intermediate): concentration that cannot be measured visually, read-out: MIC (µg/mL) I): 32 µg/mL (≈ 84.6 µM); MIC ([5]; S (susceptible): concentration which caused 80% or more reduction in diameter of the aggregation, read-out: MIC (µg/mL) S): ≥ 64 µg/mL
3 | CCCCCCCCCCCC(=O)NC1CCNC1 (stereo not drawn) [Compound 1a-1, N-(pyrrolidin-3-yl) dodecanoyl amide] | – | – | – | – | – | – | – | – | – | – | – | 0.49 | 37.4% | –
4 | CCCCCCCCCCCC(=O)NC1CCNCC1 [Compound 1b-1, N-(piperidin-4-yl) dodecanoyl amide] | – | – | – | – | – | – | – | – | – | – | – | 0.32 | 19.1% | –
5 | CCCCCCCCCCCC(=O)NN1CCCC1 [Compound 1c-1, N-(pyrrolidin-1-yl) dodecanoyl amide] | – | – | – | – | – | – | – | – | – | – | – | 0.522 | – | inhibition at 100 µM ([7]; 100µM, 14 days, relative to control test liquid (Mean Comparison OD Value)): 11%
